Results: the NIST ThermoML archive (doi:10.1016/j.jct.2006.05.004)

What was measured:
[1] = excess molar enthalpy (molar enthalpy of mixing); xn = mol fraction of the nth substance listed; settings: 298.15 K, 101 kPa, Liquid
[2] = xn = mol fraction of the nth substance listed; settings: 298.15 K, 101 kPa, Liquid

BrCCCCCCBr [1,6-dibromohexane] + CCCCC(=O)OC
Settings | excess molar enthalpy [kJ/mol] | mass density [kg/m3]
[1], x2 = 0.0734 | 0.045 | –
[1], x2 = 0.1653 | 0.0758 | –
[1], x2 = 0.264 | 0.0903 | –
[1], x2 = 0.3507 | 0.0949 | –
[1], x2 = 0.418 | 0.0893 | –
[1], x2 = 0.4743 | 0.0782 | –
[1], x2 = 0.5227 | 0.0644 | –
[1], x2 = 0.5866 | 0.0437 | –
[1], x2 = 0.6386 | 0.0294 | –
[1], x2 = 0.716 | 0.0105 | –
[1], x2 = 0.7966 | 0.0002 | –
[1], x2 = 0.879 | -0.0033 | –
[1], x2 = 0.9483 | -0.0005 | –
[2], x2 = 0.0703 | – | 1557.19
[2], x2 = 0.1394 | – | 1513.24
[2], x2 = 0.2633 | – | 1432.4
[2], x2 = 0.3222 | – | 1392.97
[2], x2 = 0.3842 | – | 1350.7
[2], x2 = 0.4472 | – | 1306.98
[2], x2 = 0.5076 | – | 1264.24
[2], x2 = 0.5698 | – | 1219.49
[2], x2 = 0.6817 | – | 1136.77
[2], x2 = 0.7372 | – | 1094.69
[2], x2 = 0.8445 | – | 1011.22
[2], x2 = 0.8993 | – | 967.47
[2], x2 = 0.945 | – | 930.4

BrCCBr [1,2-dibromoethane] + COC(C)=O
Settings | excess molar enthalpy [kJ/mol] | mass density [kg/m3]
[1], x2 = 0.0678 | 0.0977 | –
[1], x2 = 0.1329 | 0.167 | –
[1], x2 = 0.2086 | 0.225 | –
[1], x2 = 0.2791 | 0.259 | –
[1], x2 = 0.3449 | 0.279 | –
[1], x2 = 0.4079 | 0.284 | –
[1], x2 = 0.4651 | 0.274 | –
[1], x2 = 0.5145 | 0.258 | –
[1], x2 = 0.5219 | 0.254 | –
[1], x2 = 0.559 | 0.238 | –
[1], x2 = 0.5731 | 0.23 | –
[1], x2 = 0.6281 | 0.199 | –
[1], x2 = 0.6875 | 0.161 | –
[1], x2 = 0.7492 | 0.12 | –
[1], x2 = 0.8149 | 0.087 | –
[1], x2 = 0.8808 | 0.0509 | –
[1], x2 = 0.9429 | 0.0264 | –
[2], x2 = 0.0644 | – | 2093.03
[2], x2 = 0.1265 | – | 2019.85
[2], x2 = 0.186 | – | 1949.51
[2], x2 = 0.2463 | – | 1877.44
[2], x2 = 0.3093 | – | 1801.67
[2], x2 = 0.3675 | – | 1731.26
[2], x2 = 0.4309 | – | 1653.78
[2], x2 = 0.4879 | – | 1583.49
[2], x2 = 0.5507 | – | 1505.69
[2], x2 = 0.6003 | – | 1443.71
[2], x2 = 0.7248 | – | 1286.24
[2], x2 = 0.7776 | – | 1218.54
[2], x2 = 0.8338 | – | 1146.14
[2], x2 = 0.8868 | – | 1076.96
[2], x2 = 0.9443 | – | 1001.13

BrCCCCCBr [1,5-dibromopentane] + CCC(=O)OC
Settings | excess molar enthalpy [kJ/mol] | mass density [kg/m3]
[1], x2 = 0.0808 | 0.118 | –
[1], x2 = 0.1674 | 0.191 | –
[1], x2 = 0.2542 | 0.247 | –
[1], x2 = 0.3326 | 0.275 | –
[1], x2 = 0.4065 | 0.284 | –
[1], x2 = 0.4708 | 0.279 | –
[1], x2 = 0.4974 | 0.272 | –
[1], x2 = 0.5293 | 0.263 | –
[1], x2 = 0.5381 | 0.26 | –
[1], x2 = 0.5791 | 0.24 | –
[1], x2 = 0.584 | 0.235 | –
[1], x2 = 0.6329 | 0.213 | –
[1], x2 = 0.6845 | 0.181 | –
[1], x2 = 0.7383 | 0.153 | –
[1], x2 = 0.7938 | 0.119 | –
[1], x2 = 0.8494 | 0.0847 | –
[1], x2 = 0.9053 | 0.0468 | –
[1], x2 = 0.955 | 0.0218 | –
[2], x2 = 0.0841 | – | 1644.47
[2], x2 = 0.1537 | – | 1602.6
[2], x2 = 0.1671 | – | 1594.29
[2], x2 = 0.2971 | – | 1510.79
[2], x2 = 0.3661 | – | 1463.62
[2], x2 = 0.4312 | – | 1417.3
[2], x2 = 0.4903 | – | 1373.47
[2], x2 = 0.609 | – | 1280.2
[2], x2 = 0.6628 | – | 1235.27
[2], x2 = 0.716 | – | 1189.3
[2], x2 = 0.8143 | – | 1099.41
[2], x2 = 0.864 | – | 1051.37
[2], x2 = 0.9561 | – | 957.37
